Reference: patent US4812473A, “1,5-Disubstituted imidazoles as inhibitors of juvenile hormone” (Earth Chemical Co., Ltd., priority 1986, dated 1989)

Columns and labels:
[1] = test system: anti-JH activity; assay: Inhibition of the anti-JH activity of the compound of Example 1 by methoprene, a JH-active substance; conditions: in vivo
Procedure: Investigation was conducted to determine whether the activity of the foregoing compound of the invention can be inhibited by methoprene which is a JH-active substance. […] [Anti-JH Activity Test II]

[2] = test system: 4th-instar household silkworm larvae; assay: Anti-JH Activity Test II: anti-JH activity value (ED50); assay type: in vivo, Bombyx mori; conditions: 4th-instar larvae, dropwise application
Procedure: (§1) The compound (test preparation) of the present invention diluted with acetone to the predetermined concentration was applied dropwise, in an amount of 1 to 4 μper larva, to the abdomen and the back of third- or fourth-instar larvae (those living for 0 to 8 hours after ecdysis) of household silkworms (Bombyx mori) raised in a room and fed on mulberry leaves. Immediately after treatment, the larvae were placed into a plastics case and reared by being fed on mulberry leaves until they started spinning cocoons. The anti-JH activity was evaluated in terms of the percentage (%) of presence of larvae (premature larvae) which began to spin cocoons at the 4th-instar stage without undergoing the 5th-instar moult. The test larvae treated with each test preparation in each group numbered 20. The test larvae in the control group treated with acetone in lieu of the test compound all commenced cocooning after the 5th-instar moult.
After the test compound diluted to the predetermined concentration was applied dropwise to 4th-instar household silkworm larvae in the same manner as in Anti-JH Activity Test I as described above, the larvae thus treated were reared until they started cocooning. The number of larvae which began to cocoon at the 4th-instar stage without undergoing the 5th-instar moult were counted to determine the percentage (%) of presence of larvae (premature larvae). Then the concentration of test preparation which induced 50% presence was determined and indicated as an anti-JH activity value (ED50).

[3] = test system: household silkworms (Bombyx mori) larvae; assay: Anti-JH Activity Test I: activity to induce premature metamorphosis; assay type: in vivo
Procedure: as §1

| SMILES | ED50 (anti-JH activity value, 50% presence of premature larvae) [2] [μg/larva] | also measured |
| --- | --- | --- |
| COC(C)(C)CCC[C@H](C)C/C=C/C(C)=C/C(=O)OC(C)C (racemic) [methoprene] | – | inhibition by methoprene of the activity of the compound of the invention (Example 1) [1]: completely inhibited |
| CC(C)CCCC(C)Cc1cncn1Cc1ccccc1 (stereo not drawn) [Example 1, 1-benzyl-5-(2,6-dimethylheptyl)imidazole] | 1.4 | Activity to induce premature metamorphosis ([3]; 3rd-instar larvae, dosage 0.5 μg/larva): 10%; Activity to induce premature metamorphosis ([3]; 3rd-instar larvae, dosage 1 μg/larva): 70%; Activity to induce premature metamorphosis ([3]; 3rd-instar larvae, dosage 2 μg/larva): 100%; Activity to induce premature metamorphosis ([3]; 4th-instar larvae, dosage 1 μg/larva): 20%; Activity to induce premature metamorphosis ([3]; 4th-instar larvae, dosage 2 μg/larva): 100%; Activity to induce premature metamorphosis ([3]; 4th-instar larvae, dosage 10 μg/larva): 100%; anti-JH activity (in words) ([3]; conclusion from Table 1): had an anti-JH activity |
| CC(C)=CCC/C(C)=C/c1cncn1C [Example 2, 1-methyl-5-[(E)-2,6-dimethyl-1,5heptadienyl]-imidazole] | 17.5 | – |
| CCn1cncc1/C=C(\C)CCC=C(C)C [Example 3, 1-ethyl-5-[(E)-2,6-dimethyl-1,5-heptadienyl]imidazole] | 5.8 | – |
| CCCn1cncc1/C=C(\C)CCC=C(C)C [Example 4, 1-propyl-5-[(E)-2,6-dimethyl-1,5-heptadienyl]imidazole] | 3.5 | – |
| CCCCn1cncc1/C=C(\C)CCC=C(C)C [Example 5, 1-butyl-5-[(E)-2,6-dimethyl-1,5-heptadienyl]imidazole] | 3.1 | – |
| CCCCCn1cncc1/C=C(\C)CCC=C(C)C [Example 6, 1-amyl-5-[(E)-2,6-dimethyl-1,5-heptadienyl]imidazole] | 2.4 | – |
| CCCCCCn1cncc1/C=C(\C)CCC=C(C)C [Example 7, 1-hexyl-5-[(E)-2,6-dimethyl-1,5-heptadienyl]imidazole] | 4.2 | – |
| CC(C)=CCC/C(C)=C/c1cncn1C(C)C [Example 8, 1-isopropyl-5-[(E)-2,6-dimethyl-1,5-heptadienyl]imidazole] | 6.4 | – |
| CC(C)=CCC/C(C)=C/c1cncn1CC(C)C [Example 9, 1-isobutyl-5-[(E)-2,6-dimethyl-1,5-heptadienyl]imidazole] | 1.8 | – |
| CCC(C)n1cncc1/C=C(\C)CCC=C(C)C (stereo not drawn) [Example 10, 1-sec-butyl-5-[(E)-2,6-dimethyl-1,5-heptadienyl]imidazole] | 1.9 | – |
| CC(C)=CCC/C(C)=C/c1cncn1CCC(C)C [Example 11, 1-isoamyl-5-[(E)-2,6-dimethyl-1,5-heptadienyl]imidazole] | 3.5 | – |
| CC(C)=CCC/C(C)=C/c1cncn1C1CCCC1 [Example 12, 1-cyclopentyl-5-[(E)-2,6-dimethyl-1,5-heptadienyl]imidazole] | 3.6 | – |
| CC(C)=CCC/C(C)=C/c1cncn1C1CCCCC1 [Example 13, 1-cyclohexyl-5-[(E)-2,6-dimethyl-1,5-heptadienyl]imidazole] | 6.6 | – |
